Among the data in ChEMBL document CHEMBL3600285, “Inhibitory Effects of Highly Oxygenated Lanostane Derivatives from the Fungus Ganoderma lucidum on P-Glycoprotein and α-Glucosidase” (J Nat Prod, 2015) are Ratio and IC50 values, retold here.

Data set [1] has as its target ATP-dependent translocase ABCB1 (Homo sapiens, UniProt P08183). The data set can be described thus: Inhibition of p-glycoprotein in human adriamycin-resistant MCF7 cells assessed as increase of adriamycin accumulation at 20 uM after 1 hr by LC-MS/MS analysis relative to control. The format is cell-based. Particulars: mcf7, 1 h.
A further data set concerns the target Alpha-glucosidase MAL12 (Saccharomyces cerevisiae S288c, UniProt P53341). The experiment in a line: Inhibition of yeast alpha-glucosidase using p-NPG as substrate.

Broadly, the IC50 is the concentration at which inhibition is half-maximal.

The structures appear in SMILES notation.

Sequence of Alpha-glucosidase MAL12 (P53341 whole entry): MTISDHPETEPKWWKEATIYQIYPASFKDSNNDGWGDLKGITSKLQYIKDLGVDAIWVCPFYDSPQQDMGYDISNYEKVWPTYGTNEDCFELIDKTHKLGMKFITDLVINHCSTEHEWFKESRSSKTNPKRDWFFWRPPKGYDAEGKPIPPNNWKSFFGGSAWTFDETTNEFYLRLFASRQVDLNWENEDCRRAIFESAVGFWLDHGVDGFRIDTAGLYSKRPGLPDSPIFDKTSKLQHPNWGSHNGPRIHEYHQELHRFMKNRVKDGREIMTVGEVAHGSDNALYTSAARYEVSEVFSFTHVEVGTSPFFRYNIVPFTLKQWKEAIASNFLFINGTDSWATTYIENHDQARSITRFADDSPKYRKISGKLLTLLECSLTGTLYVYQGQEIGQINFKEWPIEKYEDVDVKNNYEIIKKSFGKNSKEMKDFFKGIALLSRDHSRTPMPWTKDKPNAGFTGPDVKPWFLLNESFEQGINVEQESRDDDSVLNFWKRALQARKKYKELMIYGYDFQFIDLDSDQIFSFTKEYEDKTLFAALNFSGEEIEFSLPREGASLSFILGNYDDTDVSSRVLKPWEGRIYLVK
Sequence of ATP-dependent translocase ABCB1 (P08183 whole entry): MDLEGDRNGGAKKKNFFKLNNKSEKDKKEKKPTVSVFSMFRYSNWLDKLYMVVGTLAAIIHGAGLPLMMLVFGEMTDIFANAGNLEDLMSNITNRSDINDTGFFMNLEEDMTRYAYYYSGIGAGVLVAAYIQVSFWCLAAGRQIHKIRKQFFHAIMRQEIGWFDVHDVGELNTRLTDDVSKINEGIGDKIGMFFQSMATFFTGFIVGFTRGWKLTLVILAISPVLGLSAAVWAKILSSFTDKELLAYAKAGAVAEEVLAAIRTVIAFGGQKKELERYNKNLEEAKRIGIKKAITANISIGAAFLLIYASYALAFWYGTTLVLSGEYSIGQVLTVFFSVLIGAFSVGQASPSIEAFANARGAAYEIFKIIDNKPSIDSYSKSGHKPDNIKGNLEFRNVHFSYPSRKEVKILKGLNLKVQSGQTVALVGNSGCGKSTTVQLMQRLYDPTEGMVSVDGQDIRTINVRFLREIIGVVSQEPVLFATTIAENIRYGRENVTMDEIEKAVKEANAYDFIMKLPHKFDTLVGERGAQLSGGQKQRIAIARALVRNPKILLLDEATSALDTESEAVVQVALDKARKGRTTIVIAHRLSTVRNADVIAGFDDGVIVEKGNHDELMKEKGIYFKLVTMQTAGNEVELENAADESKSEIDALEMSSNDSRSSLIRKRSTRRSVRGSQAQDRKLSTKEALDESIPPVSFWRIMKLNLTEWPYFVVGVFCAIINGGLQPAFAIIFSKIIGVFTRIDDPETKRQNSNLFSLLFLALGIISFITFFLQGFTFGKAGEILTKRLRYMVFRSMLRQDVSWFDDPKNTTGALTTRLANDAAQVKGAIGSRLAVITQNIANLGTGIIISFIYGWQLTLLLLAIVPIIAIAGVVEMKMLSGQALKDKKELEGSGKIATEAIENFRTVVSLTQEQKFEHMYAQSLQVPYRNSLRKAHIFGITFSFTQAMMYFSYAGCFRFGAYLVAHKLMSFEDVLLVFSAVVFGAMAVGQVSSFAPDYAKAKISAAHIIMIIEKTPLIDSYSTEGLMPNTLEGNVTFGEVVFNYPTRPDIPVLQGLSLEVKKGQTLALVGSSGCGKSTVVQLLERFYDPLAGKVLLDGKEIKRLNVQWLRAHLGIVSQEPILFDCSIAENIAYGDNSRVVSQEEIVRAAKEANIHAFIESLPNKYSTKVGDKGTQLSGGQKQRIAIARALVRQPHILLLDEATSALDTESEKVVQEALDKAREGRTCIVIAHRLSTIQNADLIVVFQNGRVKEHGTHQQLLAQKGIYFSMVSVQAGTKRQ

As for `COc1ccc(CCN(C)CCCC(C#N)(c2ccc(OC)c(OC)c2)C(C)C)cc1OC` (stereo not given), in data set [1], the Ratio is listed as 3. Consider `COC(=O)CC[C@@H](C)[C@H]1CC(=O)[C@@]2(C)C3=C(C(=O)C[C@]12C)[C@@]1(C)CCC(=O)C(C)(C)[C@@H]1CC3=O` [METHYL LUCIDENATE F], for which, in data set [1], the Ratio is 3.

`CC1(C)[C@@H](O)CC[C@]2(C)C3=C([C@@H](O)C[C@@H]12)[C@]1(C)C(=O)C[C@H]([C@]2(C)CCC(=O)O2)[C@@]1(C)[C@H](O)C3=O` displayed a half-inhibitory concentration (IC50) against Alpha-glucosidase MAL12 of 41.7 µM.

`CC1(C)C(=O)CC[C@]2(C)C3=C([C@@H](O)C[C@@H]12)[C@]1(C)C(=O)C[C@H]([C@]2(C)CCC(=O)O2)[C@@]1(C)[C@@H](O)C3=O`: the Ratio in data set [1] was 3. Take `C[C@H](C(=O)O)[C@H]1CC(=O)[C@@]2(C)C3=C(C(=O)C[C@]12C)[C@@]1(C)CCC(=O)C(C)(C)[C@@H]1CC3=O`: the IC50 against Alpha-glucosidase MAL12 came out at 145 µM. As for `CC1(C)[C@@H](O)CC[C@]2(C)C3=C([C@@H](O)C[C@@H]12)[C@]1(C)C(=O)C[C@H]([C@]2(C)CCC(=O)O2)[C@@]1(C)C(=O)C3=O`, the Ratio in data set [1] turned out to be 3. The same compound showed a concentration for half-maximal inhibition (IC50) at Alpha-glucosidase MAL12 of 91.3 µM.

In the case of `C/C(=C\CC[C@@H](C)[C@H]1CC[C@@]2(C)C3=C([C@@H](O)C[C@]12C)[C@@]1(C)CCC(=O)C(C)(C)[C@@H]1CC3=O)C(=O)O`, the Ratio in data set [1] was 3. For the same compound, the 50% inhibitory concentration (IC50) against Alpha-glucosidase MAL12 stood at 119 µM. With `CC1(C)C(=O)CC[C@]2(C)C3=C(C(=O)C[C@@H]12)[C@]1(C)C(=O)C[C@H]([C@]2(C)CCC(=O)O2)[C@@]1(C)CC3=O`, the 50% inhibitory concentration (IC50) at Alpha-glucosidase MAL12 was 81.8 µM.
